Measurements published in patent publication US20100055168A1, “CATIONIC LIPIDS AND USES THEREOF” (ABBOTT LABORATORIES, priority 2008, published 2010).

Tested on: β-galactosidase in tumor sections
Test: IHC analysis of β-galactosidase staining in intraliver tumor sections after i.v. dosing of Lipid-Based Particles
Assay type: in vivo, Scid female mice
Parameters: key: −: there was no staining, a small area of weak staining, or disperse strong single cell staining; ±: there was 5% of the section with weak staining or one patch of strong staining; +: there was 15% of the section with strong staining; ++: there was ˜50% of the section with strong straining; +++: there was 80% of the section with strong straining; ++++: the whole section had strong staining
Conditions: intraliver tumor model, Scid mice, tail vein (i.v) injection
Description: The animal studies were carried out in accordance with internal Institutional Animal Care and Use Committee (IACUC) guidelines at Abbott Laboratories. Scid female mice at 6 to 8 weeks of age were obtained from Charles River Laboratory and used for […] tumor models. Mouse livers were exposed by vertical incision on mouse abdomens and the tumor cells were directly injected into the livers. The incision was closed by suture and wound clips. All cell lines used for creating xenograft tumors were subjected to the IMPACT profile I test (18 agents) at the University of Missouri Research Animal Diagnostic and Investigative Laboratory, and all cell lines were found negative for the 18 infectious agents tested. Tumor cells were suspended in a 1:1 mixture of S-MEM (Invitrogen, Carlsbad, Calif.) and matrigel (BD Bioscience, San Jose, Calif.) and inoculated at 1×10E6 cells per animal. Treatments were started 3 4 weeks after tumor inoculation. Formulated or unformulated siRNAs were administrated via tail vein (i.v) injection. IHC was carried out as previously described [Li, L., et al., Evaluating hypoxia-inducible factor-1alpha as a cancer therapeutic target via inducible RNA interference in vivo. Cancer Res, 2005. 65(16): p. 7249-58]. Briefly, tumors were excised, cut into pieces of less than 3 mm in thickness and immediately fixed in buffered formalin solution with neutral pH (Sigma, St. Louis, Mo.). The formalin-fixed and paraffin-embedded tumor sections were then used for staining. The mouse anti-β-galactosidase mAb (Promega, Madison, Wis.) was used to detect β-galactosidase in tumor sections. […] IHC images were acquired using the Nikon TE2000 inverted microscope. The β-galactosidase staining was evaluated by 2 people independently based on the scoring system listed below. The average of the score was calculated for each tumor.

Measured: In vivo Response (β-galactosidase IHC staining score)

C[C@H]1c2cccc(O)c2C(=O)C2=C(O)[C@]3(O)C(=O)C(C(N)=O)=C(O)[C@@H](N(C)C)[C@@H]3[C@@H](O)[C@@H]21 [Doxycycline]
+++: column 1 (individual tumor, head not explained) | column 2 (individual tumor, head not explained) | column 3 (individual tumor, head not explained) | column 4 (individual tumor, head not explained) | column 5 (individual tumor, head not explained) | column 6 (individual tumor, head not explained)
